One data set can be described thus: Log P by HPLC on reversed phase columns (EEC directive 79/831 Annex V.A8). It counts as physicochemical. The conditions noted are these: LogP method [a]; compounds of formula (I), Table 1.1. The protocol:
In the above tables, measurement of Log P values was performed according to EEC directive 79/831 Annex V.A8 by HPLC (High Performance Liquid Chromatography) on reversed phase columns with the following methods: • ^[a] Log P value is determined by measurement of LC-UV, in an acidic range, with 0.1% formic acid in water and acetonitrile as eluent (linear gradient from 10% acetonitrile to 95% acetonitrile). • ^[b] Log P value is determined by measurement of LC-UV, in a neutral range, with 0.001 molar ammonium acetate solution in water and acetonitrile as eluent (linear gradient from 10% acetonitrile to 95% acetonitrile). • ^[c] Log P value is determined by measurement of LC-UV, in an acidic range, with 0.1% phosphoric acid and acetonitrile as eluent (linear gradient from 10% acetonitrile to 95% acetonitrile). If more than one Log P value is available within the same method, all the values are given and separated by “+”. Calibration was done with straight-chain alkan2-ones (with 3 to 16 carbon atoms) with known Log P values (measurement of Log P values using retention times with linear interpolation between successive alkanones). Lambda-max-values were determined using UV-spectra from 200 nm to 400 nm and the peak values of the chromatographic signals.
For the molecule `CCOC(=O)C(CCSC)NC(=O)c1sc(Cl)c(Cl)c1C(F)F` (stereo not drawn) [1.0419], the LogP was 3.86^[a].

As to `N#CCNC(=O)c1sc(Br)c(Cl)c1F` [1.0421], the LogP is 2.33^[a].

Consider `CCOC(=O)C(Cc1ccccc1)NC(=O)c1sc(Br)c(Cl)c1F` (stereo not drawn) [1.0433], for which the LogP is 4.48^[a].

Turning to `CCOC(=O)C1(NC(=O)c2cc(Br)c(Cl)s2)CC1` [1.0458], the LogP is 3.43^[a].

On to `CCOC(=O)C(Cc1ccccc1)NC(=O)c1sc(Br)c(C#N)c1Br` (stereo not drawn) [1.0412], for which the LogP is 4.08^[a].

`O=C(NC1(C(=O)O)CC1)c1cc(I)c(I)s1` [1.0469]: the LogP is 2.08^[a].

Regarding `COC(=O)CNC(=O)c1sc(Br)c(Br)c1Cl` [1.0492], the LogP was 2.92^[a].

Staying with this data set, now noted: method [a].
`CCOC(=O)C[C@H](NC(=O)c1sc(Br)c(Br)c1F)C(=O)OCC` [1.0558]: the LogP is 3.76^[a].

With `CCCOC(=O)C1(NC(=O)c2sc(Cl)c(Cl)c2Br)CCC1` [1.0879], the LogP was 4.74^[a].

With `CCOC(=O)CNC(=O)c1sc(C#N)c(Cl)c1Cl` [1.0570], the LogP is 2.60^[a].

As to `COC(=O)C1(NC(=O)c2cc(Cl)c(Br)s2)CC1` [1.0162], the LogP was 2.48^[a].

Turning to `N#CCNC(=O)c1sc(Cl)c(Cl)c1I` [1.0188], the LogP was 2.72^[a].

Consider `COC(=O)C1(NC(=O)c2sc(C#N)c(Br)c2C)CC1` [1.0243], for which the LogP was 2.26^[a].

In the case of `CCOC(=O)C(CCSC)NC(=O)c1sc(Br)c(Cl)c1Br` (stereo not drawn) [1.0838], the LogP is 4.55^[a].

Regarding `CCOC(=O)CNC(=O)c1sc(Cl)c(C#N)c1Br` [1.0653], the LogP was 2.58^[a].

Consider `O=C(NC1(C(=O)OC2CCC2)CC1)c1sc(Cl)c(Br)c1F` [1.0644], for which the LogP was 3.69^[a].

On to `COC(=O)C1(NC(=O)c2sc(I)c(Cl)c2Cl)CC1` [1.0828], for which the LogP is 3.01^[a].

As to `CCOC(=O)C(Cc1ccccc1)NC(=O)c1sc(Cl)c(Br)c1C#N` (stereo not drawn) [1.0628], the LogP was 4.00^[a].

Regarding `O=C(O)CNC(=O)c1sc(Cl)c(Br)c1Cl` [1.0875], the LogP was 2.18^[a].

As for `CCOC(=O)C1(NC(=O)c2sc(Cl)c(Br)c2C#N)CCC1` [1.0630], the LogP is 3.20^[a].

In the case of `COC(=O)C1(NC(=O)c2sc(C#N)c(Cl)c2Cl)CC1` [1.0573], the LogP was 2.40^[a].

For the molecule `N#CCNC(=O)c1sc(C#N)c(Cl)c1Cl` [1.0582], the LogP is 2.04^[a].

On to `COC(=O)CNC(=O)c1cc(Br)c(Cl)s1` [1.0240], for which the LogP was 2.36^[a].

For the molecule `COC(=O)C[C@H](NC(=O)c1sc(Br)c(Br)c1F)C(=O)OC` [1.0555], the LogP was 2.99^[a].

Regarding `CC(C#N)(NC(=O)c1sc(Br)c(Br)c1F)C1CC1` (stereo not drawn) [1.0872], the LogP is 3.47^[a].

Take `CCOC(=O)C(CCSC)NC(=O)c1sc(Cl)c(Br)c1Br` (stereo not drawn) [1.0216]: the LogP is 4.40^[a].

Regarding `COC(=O)C(C)(C)NC(=O)c1sc(Cl)c(C#N)c1Br` [1.0657], the LogP is 2.83^[a].

Turning to `CCOC(=O)C[C@H](NC(=O)c1sc(Br)c(Br)c1Cl)C(=O)OCC` [1.0545], the LogP was 4.15^[a].

Turning to `NC(=O)CCC(NC(=O)c1sc(Br)c(Br)c1F)C(=O)O` (stereo not drawn) [1.0230], the LogP was 1.65^[a].

Consider `CCOC(=O)C1(NC(=S)c2sc(Cl)c(Br)c2Cl)CCC1` [1.0853], for which the LogP is 5.04^[a].

In the case of `CCOC(=O)CNC(=O)c1sc(Br)c(Br)c1Cl` [1.0142], the LogP was 3.30^[a].

For the molecule `COC(=O)C1(NC(=O)c2sc(Cl)c(Br)c2F)CC1` [1.0603], the LogP was 2.70^[a].

Consider `O=C(NC(C(=O)OCc1ccccc1)C1CC1)c1sc(Cl)c(Cl)c1Br` (stereo not drawn) [1.0617], for which the LogP was 5.10^[a].

On to `CC(C)(C)OC(=O)C(NC(=O)c1sc(Br)c(Br)c1F)C1CC1` (racemic) [1.0921], for which the LogP is 4.89^[a].

As for `O=C(NC1(C(=O)OC2CCC2)CC1)c1sc(Cl)c(Br)c1Br` [1.0594], the LogP was 4.20^[a].

Still in this data set, the particulars now being: method [a]: LC-UV, acidic range, 0.1% formic acid in water and acetonitrile.
As for `O=C(NC1CCCCNC1=O)c1sc(Br)c(Br)c1Cl` (stereo not drawn) [I.0957], the LogP is 2.99^[a].

For `O=C(O)c1sc(Br)c(Br)c1C(F)(F)F` [II.004], the LogP is 2.44^[a].

As for `COC(=O)c1sc(Cl)c(Br)c1F` [II.025], the LogP was 3.47^[a].

For the molecule `O=C(NC1CCCNC1=O)c1sc(Br)c(Br)c1F` (stereo not drawn) [I.0061], the LogP is 2.01^[a].

Turning to `Cc1c(C(=O)N[C@H]2CCOC2=O)sc(Cl)c1Br` [I.0762], the LogP is 2.45^[a].

On to `CCOC(=O)c1sc(Br)c(I)c1C` [II.031], for which the LogP was 5.03^[a].

Regarding `Cc1c(C(=O)N[C@H]2CCOC2=O)sc(C#N)c1Br` [I.0761], the LogP is 1.94^[a].

`O=C(N[C@H]1CCCNC1=O)c1sc(Cl)c(Cl)c1Br` [I.0944]: the LogP was 2.30^[a].

`O=C(O)c1sc(F)c(Br)c1Br` [II.094]: the LogP was 2.26^[a].

Regarding `N#Cc1c(C(=O)O)sc(Br)c1Br` [II.104], the LogP was 1.71^[a].

Take `COC(=O)c1sc(Cl)c(Cl)c1C(F)F` [II.023]: the LogP is 3.77^[a].

On to `O=C(N[C@H]1CNC1=O)c1sc(Cl)c(Cl)c1Br` [I.0808], for which the LogP was 2.03^[a].

The same data set, now with this note: method [a]; compounds of formula (I), Table 1.1.
As to `CCSC(=O)C(NC(=O)c1sc(Cl)c(Br)c1C)C(C)C` (racemic) [1.0021], the LogP was 4.74^[a].

As to `CCOC(=O)CCNC(=O)c1sc(Cl)c(Cl)c1Br` [1.0084], the LogP is 3.50^[a].

Turning to `CCOC(=O)C(CC(F)(F)F)NC(=O)c1sc(Br)c(Br)c1F` (stereo not drawn) [1.0050], the LogP is 3.88^[a].

For `CCOC(=O)C(NC(=O)c1sc(Br)c(Cl)c1C)C(C)C` (stereo not drawn) [1.0076], the LogP is 4.25^[a].

In the case of `CCSC(=O)C(CC(C)C)NC(=O)c1sc(Br)c(Br)c1F` (racemic) [1.0013], the LogP is 5.05^[a].

For `CCOC(=O)C1(NC(=O)c2sc(I)c(Br)c2C)CC1` [1.0098], the LogP was 3.19^[a].

With `Cc1c(C(=O)NCC(=O)SCc2ccccc2)sc(Cl)c1Br` [1.0022], the LogP was 4.37^[a].

As for `CCOC(=O)CNC(=O)c1sc(C#N)c(Br)c1C` [1.0024], the LogP was 2.46^[a].

As for `CCOC(=O)C1(NC(=O)c2cc(Br)c(C#N)s2)CC1` [1.0053], the LogP was 2.45^[a].

Regarding `CCSC(=O)C(CC(C)C)NC(=O)c1sc(Cl)c(Br)c1C` (racemic) [1.0020], the LogP was 5.03^[a].

As for `CCOC(=O)C(Cc1ccccc1)NC(=O)c1cc(Br)c(Cl)s1` (racemic) [1.0029], the LogP was 4.06^[a].

In the case of `COC(=O)C1(NC(=O)c2sc(Br)c(Br)c2F)CSC1` [1.0047], the LogP was 3.19^[a].

Regarding `Cc1c(C(=O)NCC#N)sc(Cl)c1Br` [1.0105], the LogP is 2.58^[a].

On to `CCOC(=O)C1(NC(=O)c2sc(Cl)c(Br)c2C)CCC1` [1.0066], for which the LogP is 3.71^[a].

The data set is the same for the next values; noted with them: method marked [a].
Consider `COC(=O)C(C)(C)NC(=O)c1sc(C#N)c(Cl)c1Br` [1.0668], for which the LogP was 2.90^[a].

With `N#CCNC(=O)c1sc(Cl)c(C#N)c1Br` [1.0663], the LogP is 2.03^[a].

In the case of `COC(=O)C(NC(=O)c1sc(F)c(Br)c1Br)C1CC1` (stereo not drawn) [1.0710], the LogP is 3.55^[a].

In the case of `N#CCNC(=O)c1sc(Cl)c(Cl)c1C(F)F` [1.0745], the LogP was 2.50^[a].

As for `CCOC(=O)C(NC(=O)c1sc(Br)c(Cl)c1C)C(=O)OCC` [1.0276], the LogP was 3.84^[a].

As for `COC(=O)C1(NC(=O)c2sc(Br)c(Br)c2C(F)(F)F)CC1` [1.0368], the LogP was 2.93^[a].

As for `COC(=O)CNC(=O)c1sc(Br)c(Br)c1C(F)F` [1.0354], the LogP is 2.66^[a].

In the case of `COC(=O)C(NC(=O)c1sc(Cl)c(C#N)c1Cl)C1CC1` (stereo not drawn) [1.0395], the LogP is 2.97^[a].

As to `CCOC(=O)CNC(=O)c1sc(F)c(Br)c1C` [1.0317], the LogP is 2.67^[a].

Turning to `COC(=O)[C@H](CCSC)NC(=O)c1sc(Br)c(Cl)c1C` [1.0768], the LogP was 3.60^[a].

Consider `CCOC(=O)C(CSC)NC(=O)c1sc(Br)c(Br)c1C#N` (stereo not drawn) [1.0755], for which the LogP is 3.40^[a].

As to `CCOC(=O)C(CC(C)C)NC(=O)c1sc(Cl)c(Cl)c1C#N` (stereo not drawn) [1.0279], the LogP is 4.05^[a].

Regarding `COC(=O)C1(NC(=O)c2sc(Br)c(Br)c2C(F)F)CC1` [1.0356], the LogP is 2.86^[a].

As for `CCOC(=O)C(CC1CC1)NC(=O)c1sc(Br)c(Cl)c1C` (stereo not drawn) [1.0274], the LogP is 4.26^[a].

On to `CCOC(=O)C1(NC(=O)c2sc(F)c(Cl)c2C)CC1` [1.0298], for which the LogP is 2.77^[a].

Still in this data set, the particulars now being: method marker [a] given with each value; Table 1.1, compounds of formula (I).
As to `CCOC(=O)C1(NC(=O)c2sc(C#N)c(Cl)c2Cl)CSC1` [1.1041], the LogP is 3.23^[a].

As for `CN(C)C(=S)C1(NC(=O)c2sc(Br)c(Br)c2F)CC1` [1.0977], the LogP was 2.93^[a].

On to `CCOC(=O)C(NC(=O)c1sc(Br)c(Br)c1F)C(F)(F)F` (racemic) [1.0952], for which the LogP was 4.08^[a].

Staying with this data set, now noted: reversed phase HPLC columns, method [a]: LC-UV, acidic range, 0.1% formic acid in water and acetonitrile.
Regarding `N#Cc1c(C(=O)O)sc(Cl)c1Cl` [II.103, 4,5-dichloro-3-cyanothiophene-2-carboxylic acid], the chromatographic logP (as a rule, a lipophilicity value derived from retention on a column) was 1.61.

The data set is the same for the next values; noted with them: reversed phase HPLC columns, value in preparation example, method not marked.
`N#Cc1c(C(=O)O)sc(Cl)c1Cl` [II.103, 4,5-dichloro-3-cyanothiophene-2-carboxylic acid] registered a chromatographic logP of 1.61.

(Values after patent publication US12642270B2, “Substituted thiophene carboxamides, thiophene carboxylic acids and derivatives thereof” (Bayer Aktiengesellschaft, priority 2019, dated 2026).)
